Series [1] is classed as in vivo, Sprague-Dawley rats. Particulars: rat plasma.
The nature of the next series: in vivo. Also on record: species or system Sprague-Dawley rats. Particulars: rat.
Series [2] is classed as in vitro ADME, rat. The settings on record: room temperature (25 °C for 24 h), sampler 4 °C for 24 h, three freeze-thaw cycles (−20 °C to 25 °C), −80 °C for 14 days.
For series [3] the following is noted: SD rats, oral 15 mg/kg; cited from earlier work.
The conditions of series [4]: mice, rats, and dogs; ref a previous article; cited from earlier work.
For series [5] the following is noted: healthy volunteers, cited from earlier work.
Where [6] appears, read: oral 30 mg/kg, 4 h after administration.

Like-named read-outs stand apart in the source and are kept apart here.

For the compound `C=C(F)C(=O)N1CCN(c2nc(OC[C@@H]3CCCN3C)nc3c2CCN(c2cccc4cccc(Cl)c24)C3)C[C@@H]1CC#N` [Adagrasib], the “presence in plasma after intravenous administration” value in series [1] (10 h after intravenous administration) was “disappeared completely from the plasma”. Further, the “plasma concentration at 24 h” value in series [1] (24h after single oral administration) is on record as “very low plasma concentration”. The same compound came in with a concentration at 2 h in “in vivo” (male, Sprague-Dawley, in vivo, po, 30 mg/kg) of 5050 ± 676 ng/g. Further, in “in vivo” (oral 30 mg/kg), the presence in testis result was “not found”. Moreover, in “in vivo” (setting [6]), the “highest concentration in heart” value is given as 70.49 ± 32.73 ng/g, the “highest concentration in kidney” value amounted to 1787.02 ± 364.44 ng/g, the “highest concentration in lung” value was found to be 3897.76 ± 217.27 ng/g and the “highest concentration in pancreas” value is on record as 648.72 ± 305.97 ng/g. Also, the “highest concentration in spleen” value in the series “in vivo” (oral 30 mg/kg, 8 h after administration) is 3891.80 ± 699.19 ng/g. In addition, in “in vivo” (oral 30 mg/kg, 24 hours after administration), the “detectability in the organs (except intestine) at 24 hours” value is listed as “still detectable”. In addition, the “stability in plasma samples and homogenate” value in series [2] is listed as “stable”. Also, in series [3], the Cmax is 122.3 ng/mL, the t1/2 was 10.13 h and the tmax is 6 h. The tmax in series [4] was 4 to 6 h. For the same compound, the tmax in series [5] (multiple-dose administration) is on record as 2.96 h. Moreover, the tmax in series [5] (recommended dose of 600 mg) is 4.17 h.

A word on the Cmax: it is the highest concentration seen after dosing.

(Values after publication PMC10775801 (Drug Design, Development and Therapy, 2024).)
